According to US12612431B2, “Cyclic compounds for treating cancer” (University of South Florida, priority 2021, dated 2026):

What was measured:
[1] = molecular target: T1, EGFR phosphorylation (P-EGFR) (Homo sapiens, UniProt P00533); test: Western blot of EGF-stimulated EGFR phosphorylation in A549 cells; type: cell-based
T1 construct: endogenous in cells; host or cells: A549
Experimental: (§1) A549 cells were chosen due to their elevated expression of EGFR. […] The ability of M-2-5 to inhibit EGF-stimulated tyrosine phosphorylation of EGFR, as well as downstream AKT and ERK pathways in a dose-dependent manner was then investigated.
(§2) A549 cells were seeded into a 6-well plate at a concentration of 1×10^5 cells/well. After 12 h attachment at 37° C. and 5% CO2, the cells were starved overnight in serum-reduced DMEM followed by treatment with different concentration of M-2-5 for 4 h. […] Subsequently, the cells were incubated on ice for 10 min and centrifuged at 14,000×g at 4° C. for 10 min. An equal amount of protein was run on 4˜12% Bis-Tris gels, transferred to polyvinylidene difluoride membranes (Millipore) and western blotted with anti-phosphorylated EGFR, anti-phosphorylated AKT, anti-phosphorylated ERK and GAPDH. The experiments were conducted in triplicates and repeated for three times.

[2] = tested on: AKT phosphorylation (P-AKT); test: Western blot of downstream AKT phosphorylation in A549 cells; type: cell-based; details: starved A549 cells, 4 h pretreatment, EGF 100 ng/mL
Experimental: as §1, §2

[3] = tested on: ERK phosphorylation (P-ERK); test: Western blot of downstream ERK phosphorylation in A549 cells; type: cell-based; details: starved A549 cells, 4 h pretreatment, EGF 100 ng/mL
Experimental: as §1, §2

A549 cells [4] = test: EGF-driven cell proliferation assay (CCK-8); type: cell-based; details: A549, EGF 100 ng/mL, 48 h
Experimental: A549 cells were cultured in high-glucose DMEM (Gibco) medium containing 10% fetal bovine serum and 1% penicillin/streptomycin in an atmosphere of 5% CO2 at 37° C. A549 cells in good condition were seeded into a 96-well plate at a concentration of 1×10^3 cells/well in 100 of complete growth medium. After 24 hours of attachment at 37° C. and 5% CO2, medium was replaced by fresh serum reduced DMEM and cell were serum-starved overnight. […] After 48 h, the CCK-8 reagents were added according to the manufacturer's recommendations.

A549 cells [5] = test: Scratch-wound (cell wound healing) assay; type: cell-based; details: A549, 25 μM, 30 h
Experimental: (§3) M-2-5's inhibitory effect on cell migration of A549 cells, which plays an important role in tumor metastatic activity, was then investigated. First, a scratch-wound assay was established to investigate the cell migratory behaviors.
A549 cells in good condition were seeded into a 12-well plate at a concentration of 5×10^4 cells/well. After 24 h attachment at 37° C. and 5% CO2, they reached confluence as a monolayer. The monolayer was scratched gently and slowly with a new 200 μL pipette tip across the center of the well straightly. After scratching, the well was washed twice with medium to remove the detached cells. The well was then replenished with fresh medium containing different concentration of M-2-5. The photo was taken for the scratched monolayer and then captured again after 30 h for the same wound. The wound width was measured by ImageJ. The experiments were conducted in triplicates and repeated for three times.

A549 cells [6] = test: Transwell migration assay; type: cell-based; details: A549, EGF + M-2-5 25 μM, 12 h
Experimental: as §3
A549 cells in good condition were seeded into a 100 mm dish at a concentration of 5×10^5 cells. After overnight attachment at 37° C. and 5% CO2, culture medium was replaced with serum reduced DMEM medium, and the dish was returned to incubator for 24 h. Cells were the detached and resuspended in DMEM at a concentration of 1×10^6 cells/mL. Next, 100 μL of cell solution was plated on top of the filter membrane in a transwell insert and incubated for 10 minutes at 37° C. and 5% CO2 to allow the cells to settle down. Subsequently, 600 μL of the desired chemo-attractant was added very carefully into the bottom of the lower chamber in a 24-well plate. The culture was incubated for 12 h, and then the transwell insert was removed from the plate. A cotton-tipped applicator was used as many times as needed to carefully swab the inside of each insert. Cells were fixed by 70% ethanol, stained by 0.2% crystal violet and visualized by microscope. Transwell data was determined by the number of the migrated cells and the value from parental cells was arbitrarily set at 100%. The experiments were conducted in triplicates and repeated for three times.

pronase = test: Enzymatic stability assay toward pronase; type: in vitro ADME; details: 0.1 mg/mL pronase, 100 mM ammonium bicarbonate buffer, 37° C., 20 h
Experimental: As M-2-5 is a promising ligand to block EGFR signaling in vitro, its enzymatic stability toward pronase (the enzyme theoretically digesting peptides into single amino acids), which is critical for their potential biological activity in vivo was evaluated.
Cyclic γ-AApeptides M-2-5 (0.1 mg/mL) were incubated with 0.1 mg/mL protease in 100 mM ammonium bicarbonate buffer (pH 7.8) at 37° C. for 20 h. Then, the reaction mixtures were concentrated in a speed vacuum to remove water and ammonium bicarbonate. The resulting residues were re-dissolved in H2O/MeCN and analyzed on a Waters analytical HPLC system.

[7] = tested on: A549 lung tumor xenograft; test: Antitumor study in A549 lung tumor xenograft mouse model; type: in vivo, mice; details: every two days for seven times
[8] = Body weight of A549 tumor xenografted mice; type: in vivo; details: 10 and 50 mg/kg intraperitoneal, FIG. 10
Experimental: (§4) Based upon the observed strong inhibition of cell proliferation and migration, the ability to inhibit EGFR cell signaling pathways in vitro, as well as the remarkable stability against proteolytic degradation, the antitumor activity of M-2-5 in a A549 lung tumor xenograft mouse model was evaluated in vivo. […] After another 6 days post injection, mice were sacrificed, and tumors were resected. […] To confirm the expression level of P-EGFR and downstream signaling, the total proteins were extracted from tumor tissues in each group and subjected to immunoblotting of P-EGFR, P-ARK and P-ERK. […] In addition, the phosphorylation level of EGFR in the A549 tumor sections was analyzed by immunohistochemical staining. […] Together with its similar function to monoclonal antibody and its high resistance toward proteolytic degradation, it could be further investigated for promising clinical anti-cancer drug development.
A549 cells were harvested, resuspended in PBS, and injected subcutaneously into 4-6 weeks old Male BALB/c nude mice. When the tumors reach an average size of 100 mm^3, the mice were then randomized divided into four treatment groups: Control (PBS), C-225 (40 mg/kg), M-2-5 (10 mg/kg) and M-2-5 (50 mg/kg). […] The tumor volumes were determined by measuring length (l) and width (w) and calculating volume (V=lw^2/2).

P-EGFR = molecular target: T2, P-EGFR (Homo sapiens, UniProt P00533); test: Western blot of P-EGFR in A549 tumor lysates; type: in vivo, mice; details: M-2-5 50 mg/kg
T2 construct: from tissue; host or cells: A549 xenograft tumours from nude mice
T2 sequence (P00533 25-1210): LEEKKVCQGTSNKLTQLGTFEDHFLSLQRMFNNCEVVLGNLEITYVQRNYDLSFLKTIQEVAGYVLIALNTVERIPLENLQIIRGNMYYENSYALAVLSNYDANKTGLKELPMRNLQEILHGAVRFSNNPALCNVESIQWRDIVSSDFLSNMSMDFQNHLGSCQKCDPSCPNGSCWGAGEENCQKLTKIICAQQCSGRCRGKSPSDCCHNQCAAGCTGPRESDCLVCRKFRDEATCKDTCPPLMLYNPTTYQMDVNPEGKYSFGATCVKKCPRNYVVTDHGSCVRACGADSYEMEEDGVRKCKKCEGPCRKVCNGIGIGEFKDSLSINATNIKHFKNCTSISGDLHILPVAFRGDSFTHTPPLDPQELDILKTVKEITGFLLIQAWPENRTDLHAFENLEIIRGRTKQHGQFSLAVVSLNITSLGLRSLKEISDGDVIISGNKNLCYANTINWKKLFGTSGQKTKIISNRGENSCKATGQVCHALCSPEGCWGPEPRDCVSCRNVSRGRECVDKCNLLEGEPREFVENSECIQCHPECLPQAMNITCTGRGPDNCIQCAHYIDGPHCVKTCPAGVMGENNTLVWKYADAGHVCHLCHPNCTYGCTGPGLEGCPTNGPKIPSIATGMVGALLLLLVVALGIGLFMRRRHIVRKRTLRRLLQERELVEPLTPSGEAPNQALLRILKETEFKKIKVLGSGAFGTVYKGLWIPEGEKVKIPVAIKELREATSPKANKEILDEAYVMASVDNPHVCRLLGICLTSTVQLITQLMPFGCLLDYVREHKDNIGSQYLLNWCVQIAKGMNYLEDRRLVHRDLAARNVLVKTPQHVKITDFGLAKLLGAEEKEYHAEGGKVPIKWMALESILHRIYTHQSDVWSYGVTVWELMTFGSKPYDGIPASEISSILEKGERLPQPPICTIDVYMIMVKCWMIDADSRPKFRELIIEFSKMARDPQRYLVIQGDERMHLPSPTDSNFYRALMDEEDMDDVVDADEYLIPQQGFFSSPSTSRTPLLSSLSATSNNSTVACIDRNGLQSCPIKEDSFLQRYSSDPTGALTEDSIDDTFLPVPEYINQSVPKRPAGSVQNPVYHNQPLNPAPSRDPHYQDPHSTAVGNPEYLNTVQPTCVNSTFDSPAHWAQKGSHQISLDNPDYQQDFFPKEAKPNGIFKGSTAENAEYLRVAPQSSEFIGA
Experimental: (§5) After another 6 days post injection, mice were sacrificed, and tumors were resected. […] To confirm the expression level of P-EGFR and downstream signaling, the total proteins were extracted from tumor tissues in each group and subjected to immunoblotting of P-EGFR, P-ARK and P-ERK. […] In addition, the phosphorylation level of EGFR in the A549 tumor sections was analyzed by immunohistochemical staining.
(§6) The supernatant was transferred to a new tube and samples were centrifuged at 14,000 rpm for 15 min at 4° C. to remove any remaining insoluble material. The supernatant containing soluble proteins was transferred to a new tube and an aliquot was taken for the quantification and the further western blot analysis.

P-AKT = test: Western blot of P-AKT in A549 tumor lysates; type: in vivo, mice; details: M-2-5 50 mg/kg
Experimental: as §5, §6

P-ERK = test: Western blot of P-ERK in A549 tumor lysates; type: in vivo, mice; details: M-2-5 50 mg/kg, compared to C225
Experimental: as §4
For the detection of phosphorylated EGFR, AKT and ERK in tumors in vivo, a portion of the tumor (80 mg) was immersed in 500 μL extraction buffer (50 mM Tris-HCl (pH 7.4), 150 mM NaCl, 1% NP-40, 0.25% Na-deoxycholate, Protease Inhibitor, SDS 0.1-2%), and tubes were vortexed briefly. […] The supernatant containing soluble proteins was transferred to a new tube and an aliquot was taken for the quantification and the further western blot analysis.

[9] = tested on: Human Embryonic Kidney HEK293 cells
PAMPA-BBB assay = details: pH 7.4
Experimental: (§7) Carbamazepine and Antipyrine were used as the positive and negative control compounds for the assay.
The parallel artificial membrane permeability assay—blood brain barrier (PAMPA-BBB) assay procedure was realized by using a method developed by pION. All liquid handling steps for the PAMPA assay are performed on a TECAN Fredom EVO150 robot and analyzed by the pION's PAMPA Evolution Software. The pION's PAMPA-BBB includes the brain sink buffer (BSB), the BBB-1 Lipid Solution and the Stirwell™ PAMPA Sandwich plate, preloaded with magnetic disks. 4 μL of lipid were transferred in the acceptor well, followed by addition of 200 μL of BSB (pH 7.4). […] The PAMPA sandwich plate was assembled and placed on the Gut-Box™ and stirred with 60 μm Aqueous Boundary Layer (ABL) settings for 1 hour. The distribution of the compounds in the donor and acceptor buffers (150 μL aliquot) was determined by UV spectra measurement from 200 to 500 nm using the Tecan infinite M-1000 pro microplate reader. […] Experiments were repeated three times.

PAMPA-GIT assay = details: pH 5.0, 6.2 and 7.4 (FIG. 8B)
Experimental: as §7
The PAMPA-GIT assay procedure was realized by using a method developed by pION. All liquid handling steps for the PAMPA assay are performed on a TECAN Fredom EVO150 robot and analyzed by the pION's PAMPA Evolution Software. The pION's GIT PAMPA includes the acceptor sink buffer (ASB), the GIT-0 Lipid Solution and the Stirwell™ PAMPA Sandwich plate, preloaded with magnetic disks. 4 μL of lipid were transferred in the acceptor well, followed by addition of 200 μL of ASB (pH 7.4). […] The PAMPA sandwich plate was assembled and placed on the Gut-Box™ and stirred with 40 μm ABL settings for 30 min. The distribution of the compounds in the donor and acceptor buffers (150 μL aliquot) was determined by UV spectra measurement from 200 to 498 nm using the Tecan infinite M-1000 pro microplate reader. Then the Permeability (Papp, 10 ^6 cm/s) of each compound was calculated by the pion PAMPA evolution software. The assays were repeated three times.

[10] = cited from earlier work
[11] = general statement on the positive control; cited from earlier work

T1 sequence (P00533 25-1210): as above

COc1cc(CC(=O)N2CC(=O)N[C@@H](Cc3ccccc3)CN(CC(N)=O)C(=O)CCSCc3ccc(cc3)C(=O)N[C@@H](CCCCN)CN(C(=O)CCC3CCCCC3)CC(=O)N[C@@H](Cc3ccccc3)CN(C(=O)CCc3ccccc3)CC(=O)N[C@@H](Cc3ccccc3)C2)cc(OC)c1 [M-2-5]
IC50 [1]: 17.7 µM
effect on EGF-induced EGFR activation ([1]; starved A549 cells, 20 μM M-2-5 for 4 h, EGF 100 ng/mL (FIG. 5C, 5D)): blocked a vast majority of EGFR activation
inhibition of EGF stimulation of EGFR phosphorylation at 25 μM or more ([1]; starved A549 cells, 4 h pretreatment, 25 μM or more): almost complete blockage
IC50 [2]: 8.75 µM
IC50 [3]: 11.2 µM
IC50 (A549 cells [4]; CCK-8, read-out: IC50 of antiproliferative activity on EGF-stimulated cells): 8.23 µM
suppression of EGF-driven cell proliferation at ˜10 (A549 cells [4]; at ˜10 (unit not given), versus control without EGF): complete suppression of cell proliferation
percent of wound closed (A549 cells [5]): 15.2%
decrease of wound closed compared with untreated control (A549 cells [5]; control 55.3%): 40%
number of migrating cells relative to untreated control (100%) (A549 cells [6]): 64.8%
degradation by pronase monitored by HPLC (pronase): no detectable degradation
tumor volume versus PBS group ([7]; 10 mg/kg intraperitoneal): no significant differences
tumor growth versus PBS group ([7]; 50 mg/kg intraperitoneal): significant suppression of tumor growth
body weight gain [8]: did not affect the body weight gain
P-EGFR level in tumor tissue (P-EGFR): dramatic decrease
P-AKT level in tumor tissue (P-AKT): dramatic decrease
inhibition of P-ERK in tumor tissue (P-ERK): slightly weaker efficiency
selectivity toward cancer cells over normal cells ([9]; A549 versus HEK293): ~8 fold
IC50 ([9]; read-out: IC50 for HEK293 cells, no EGF stimulation, CCK-8): 62.1 µM
Papp at 1 h, 50 μM (PAMPA-BBB assay): 266
Papp, PAMPA-GIT (in words) (PAMPA-GIT assay): favorable Papp without pH-dependence

Cc1cc(=O)n(-c2ccccc2)n1C [Antipyrine]
Papp values (background) [10]: low Papp values

NC(=O)N1c2ccccc2C=Cc2ccccc21 [Carbamazepine]
absorption in the human gastrointestinal tract [11]: > 90%
